Experimental data published in patent US20240216335A1, “COMPOSITION FOR INCREASING LEUKOCYTES AND/OR BASOPHILS” (SUNTORY HOLDINGS LIMITED, priority 2021, published 2024).

Assays:
[1] = system: IL-6, IL-12p40, IL-1β, and IL-10; conditions: absence of the TLR ligand, ergothioneine concentration 0 or 10 mM; cited from earlier work
[2] = mice orally administered with ergothioneine vs mice not administered; cited from earlier work
[3] = system: blood leukocytes and basophils; experiment: Study on evaluation of blood leukocyte count and basophil count in humans (placebo-controlled, randomized, double-blind, parallel-group); format: in vivo; conditions: one capsule with 20 mg L-ergothioneine per day orally for four weeks, week 4 vs pre-testing, compared with control food group
Method: In order to evaluate the influence of supplements containing ergothioneine on blood leukocyte count and basophil count in humans, a placebo-controlled, randomized, double-blind, parallel-group study was conducted on subjects including male and female adults (46 subjects in a test food group; 46 subjects in a control food group; 92 subjects in total). In this study, one capsule containing 20 mg ergothioneine (test food) or one capsule not containing ergothioneine (control food) was fed per day for four weeks. The blood leukocyte count and basophil count in each subject were measured for pre-testing before starting the study (before starting ingestion of the test food or control food). After ingestion of the test food or control food for four weeks, the blood leukocyte count and basophil count in each subject were measured again (testing on week 4). […] Specifically, the amount of change in the test food group at the time of testing on week 4 was determined for the test food group by subtracting the blood leukocyte count (average) at the time of pre-testing from the blood leukocyte count (average) at the time of testing on week 4. Similarly, the amount of change at the time of testing on week 4 was determined for the control food group by subtracting the blood leukocyte count (average) at the time of pre-testing from the blood leukocyte count (average) at the time of testing on week 4. […]

[4] = target: T1, recombinant human epidermal growth factor receptor (EGFR) tyrosine kinase (Homo sapiens, UniProt P00533); experiment: Evaluation of activity to inhibit substrate binding of EGFR tyrosine kinase ([32P]Poly(Glu:Tyr) formation, Eurofins Panlabs); format: biochemical; conditions: 100 or 1000 μM L-ergothioneine, HEPES buffer pH 7.4, 37° C., 10 μM ATP, 0.2 mg/mL Poly(Glu:Tyr)
T1 construct: host or cells: insect cells
T1 sequence (P00533 25-1210): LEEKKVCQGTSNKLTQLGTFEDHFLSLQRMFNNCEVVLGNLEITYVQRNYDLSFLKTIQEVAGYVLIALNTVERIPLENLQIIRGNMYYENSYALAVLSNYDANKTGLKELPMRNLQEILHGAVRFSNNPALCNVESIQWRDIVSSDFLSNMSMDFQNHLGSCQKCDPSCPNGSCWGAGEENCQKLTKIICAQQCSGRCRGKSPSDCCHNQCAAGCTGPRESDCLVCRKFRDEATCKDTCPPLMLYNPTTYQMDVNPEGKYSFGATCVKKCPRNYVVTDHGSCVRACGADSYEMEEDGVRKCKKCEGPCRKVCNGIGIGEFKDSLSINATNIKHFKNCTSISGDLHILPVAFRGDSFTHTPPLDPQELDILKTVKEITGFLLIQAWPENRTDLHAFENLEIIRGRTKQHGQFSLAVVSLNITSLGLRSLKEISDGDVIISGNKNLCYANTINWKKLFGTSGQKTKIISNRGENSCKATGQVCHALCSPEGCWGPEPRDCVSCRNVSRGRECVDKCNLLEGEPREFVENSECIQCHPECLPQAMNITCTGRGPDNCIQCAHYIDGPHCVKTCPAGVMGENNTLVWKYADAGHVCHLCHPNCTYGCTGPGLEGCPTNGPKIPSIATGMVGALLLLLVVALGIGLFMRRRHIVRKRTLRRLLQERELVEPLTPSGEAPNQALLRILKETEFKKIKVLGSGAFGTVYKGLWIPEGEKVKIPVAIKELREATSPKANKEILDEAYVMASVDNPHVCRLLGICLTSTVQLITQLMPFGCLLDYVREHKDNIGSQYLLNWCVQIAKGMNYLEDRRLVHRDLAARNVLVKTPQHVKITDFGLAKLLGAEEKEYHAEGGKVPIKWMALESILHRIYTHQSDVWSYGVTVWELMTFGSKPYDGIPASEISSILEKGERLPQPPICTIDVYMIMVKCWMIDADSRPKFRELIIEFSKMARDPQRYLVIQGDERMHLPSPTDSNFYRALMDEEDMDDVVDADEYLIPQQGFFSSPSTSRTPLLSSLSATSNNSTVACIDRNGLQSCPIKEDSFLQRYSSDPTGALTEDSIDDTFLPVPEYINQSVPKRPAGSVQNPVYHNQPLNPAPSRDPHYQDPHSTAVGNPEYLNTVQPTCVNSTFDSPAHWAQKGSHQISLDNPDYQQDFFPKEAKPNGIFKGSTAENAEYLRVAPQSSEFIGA
Method: The study was commissioned to Eurofins Panlabs. The study was performed using recombinant human epidermal growth factor receptor (EGFR) tyrosine kinase expressed in insect cells. First, epidermal growth factor receptor (EGFR) tyrosine kinase (0.134 μg/mL) was incubated in HEPES buffer (pH 7.4) with 100 or 1000 μM L-ergothioneine at 37° C. for 15 minutes. Then, 0.2 mg/mL Poly(Glu:Tyr), 10 μM ATP, and 0.25 μCi [γ^32P] ATP were added. Thereby, an enzymatic reaction was initiated. After incubating at 37° ° C. for 30 minutes, 3% H3PO4 was added to terminate the reaction. Lastly, the activity of ergothioneine to inhibit substrate binding was evaluated using the amount of [^32P]Poly(Glu:Tyr) formed in the reaction as an index.

C[N+](C)(C)[C@@H](Cc1c[nH]c(=S)[nH]1)C(=O)[O-] [L-ergothioneine]
detection of IL-6, IL-12p40, IL-1β, and IL-10 [1]: none of IL-6, IL-12p40, IL-1β, and IL-10 was detected | peritesticular fat weight [2]: lower | triglyceride (neutral fat) level in plasma [2]: lower | amount of change in blood basophil count (Δ in basophils (%)) [3]: significantly increased | amount of change in blood leukocyte count (Δ in leukocytes (cells/μL)) [3]: significantly increased | activity to inhibit substrate binding of epidermal growth factor receptor (EGFR) tyrosine kinase [4]: showed an activity to inhibit substrate binding
